Measured values reported in patent US20070292908A1, “Method for Detecting Streptococcus Agalactiae Using Alpha-Glucosidase Activity” (BIOMERIEUX, priority 2004, published 2007).

Experiments:
Streptococcus agalactiae [1] = experiment: Number of strains detected as a function of the concentration of α-glucosidase substrate; type: cell-based; settings: positive when I≧0.6, 8 strains
Excerpt: The above protocol was repeated, with the exception that the concentration of enzymatic substrate was varied.
Table 2 below gives the number of strains detected (considered to be positive when I≧0.6) as a function of the concentration of substrate.

Streptococcus agalactiae [2] = experiment: Detection of Streptococcus agalactiae strains on reaction media containing an α-glucosidase enzymatic substrate; type: cell-based; settings: substrate 0.1 g/l; for intensity (I) of coloration: arbitrary scale 0 to 4
Procedure: The reaction media were prepared by mixing heart-brain extract (4.84 g/l; Solabia), meat infusion (1.96 g/l; Solabia), biothione (1 g/l; Solabia), biotrypcase (7.2 g/l; Solabia), sodium carbonate (0.3 g/l; VWR), sodium pyruvate (2 g/l; Fluka), HEPES buffer (0.4 g/l; Sigma), lactalbumin peptone (2 g/l; DMV), glucose (1 g/l; Merck), American agar (2 g/l; Sobigel) and European agar (12 g/l; Roko).
The media were then poured into a Petri dish for subsequent inoculation with bacterial strains.
Eight Streptococcus agalactiae strains derived from the applicant's collection, suspended in physiological saline, were inoculated so as to give isolated colonies on each of the media. The dishes were then incubated at 37° C. for 48 hours. The colonies formed are examined visually after 18, 24 and more than 40 hours of incubation. The coloration of these colonies, the growth and also the intensity of this coloration were noted.
The results are given in table 1 below and are expressed: • in terms of growth (G) with the size being indicated in mm, • in terms of intensity (1) of coloration based on an arbitrary scale ranging from 0 to 4, 0 corresponding to an absence of activity and 4 corresponding to the presence of a very intense coloration, • in terms of color (Co) with T=turquoise, R=pink or red, Gr=green, Mg=magenta, • according to the incubation time in hours (T).

[3] = substrate 100 mg/l, incubation 24 h
[4] = substrate 100 mg/l, incubation 48 h
[5] = substrate 200 mg/l, incubation 24 h
[6] = substrate 200 mg/l, incubation 48 h
[7] = substrate 300 mg/l, incubation 24 h
[8] = substrate 300 mg/l, incubation 48 h
[9] = strain 0008200, 18 h incubation
[10] = strain 0008200, 24 h incubation
[11] = strain 0008200, >40 h incubation
[12] = strain 0008206, 18 h incubation
[13] = strain 0008206, 24 h incubation
[14] = strain 0008206, >40 h incubation
[15] = strain 0101060, 18 h incubation
[16] = strain 0101060, 24 h incubation
[17] = strain 0101060, >40 h incubation
[18] = strain 7611003, 18 h incubation
[19] = strain 7611003, 24 h incubation
[20] = strain 7611003, >40 h incubation
[21] = strain 7701031, 18 h incubation
[22] = strain 7701031, 24 h incubation
[23] = strain 7701031, >40 h incubation
[24] = strain 7702055, 18 h incubation
[25] = strain 7702055, 24 h incubation
[26] = strain 7702055, >40 h incubation
[27] = strain 8709013, 18 h incubation
[28] = strain 8709013, 24 h incubation
[29] = strain 8709013, >40 h incubation
[30] = strain 8904053, 18 h incubation
[31] = strain 8904053, 24 h incubation
[32] = strain 8904053, >40 h incubation

For `OC[C@H]1O[C@H](Oc2c[nH]c3cc(Br)ccc23)[C@H](O)[C@@H](O)[C@@H]1O` [RedA-alpha-Glu, 6-bromo-3-indolyl-α-D-glucopyranoside], the “number of strains detected” value (Streptococcus agalactiae [1]; [3]) was 1/8, the “number of strains detected” value (Streptococcus agalactiae [1]; [4]) was 7/8 and the “number of strains detected” value (Streptococcus agalactiae [1]; [5]) was 5/8. For the same compound, the “number of strains detected” value (Streptococcus agalactiae [1]; [6]) was 8/8, the “number of strains detected” value (Streptococcus agalactiae [1]; [7]) was 6/8 and the “number of strains detected” value (Streptococcus agalactiae [1]; [8]) was 8/8. The “intensity (I) of coloration” value (Streptococcus agalactiae [2]; strain 0008200, 18 h) was 0.1, the “growth (G), size” value (Streptococcus agalactiae [2]; [9]) was 0.7 mm and the “intensity (I) of coloration” value (Streptococcus agalactiae [2]; strain 0008200, 24 h) was 0.3. For the same compound, the “growth (G), size” value (Streptococcus agalactiae [2]; [10]) was 0.7 mm, the “intensity (I) of coloration” value (Streptococcus agalactiae [2]; strain 0008200, >40 h) was 1.7 and the “growth (G), size” value (Streptococcus agalactiae [2]; [11]) was 0.7 mm. For the same compound, the “intensity (I) of coloration” value (Streptococcus agalactiae [2]; strain 0008206, 18 h) was 0.3, the “growth (G), size” value (Streptococcus agalactiae [2]; [12]) was 0.7 mm and the “intensity (I) of coloration” value (Streptococcus agalactiae [2]; strain 0008206, 24 h) was 0.5. The “growth (G), size” value (Streptococcus agalactiae [2]; [13]) was 0.8 mm, the “intensity (I) of coloration” value (Streptococcus agalactiae [2]; strain 0008206, >40 h) was 2 and the “growth (G), size” value (Streptococcus agalactiae [2]; [14]) was 1.2 mm. The “intensity (I) of coloration” value (Streptococcus agalactiae [2]; strain 0101060, 18 h) was 0.5, the “growth (G), size” value (Streptococcus agalactiae [2]; [15]) was 0.4 mm and the “intensity (I) of coloration” value (Streptococcus agalactiae [2]; strain 0101060, 24 h) was 0.8. The “growth (G), size” value (Streptococcus agalactiae [2]; [16]) was 0.5 mm, the “intensity (I) of coloration” value (Streptococcus agalactiae [2]; strain 0101060, >40 h) was 3 and the “growth (G), size” value (Streptococcus agalactiae [2]; [17]) was 0.7 mm. The “intensity (I) of coloration” value (Streptococcus agalactiae [2]; strain 7611003, 18 h) was 0.5, the “growth (G), size” value (Streptococcus agalactiae [2]; [18]) was 1 mm and the “intensity (I) of coloration” value (Streptococcus agalactiae [2]; strain 7611003, 24 h) was 0.8. The “growth (G), size” value (Streptococcus agalactiae [2]; [19]) was 1 mm, the “intensity (I) of coloration” value (Streptococcus agalactiae [2]; strain 7611003, >40 h) was 2 and the “growth (G), size” value (Streptococcus agalactiae [2]; [20]) was 1.3 mm. For the same compound, the “growth (G), size” value (Streptococcus agalactiae [2]; [21]) was 0.5 mm, the “growth (G), size” value (Streptococcus agalactiae [2]; [22]) was 0.7 mm and the “intensity (I) of coloration” value (Streptococcus agalactiae [2]; strain 7701031, >40 h) was 0.5. The “growth (G), size” value (Streptococcus agalactiae [2]; [23]) was 1.2 mm, the “growth (G), size” value (Streptococcus agalactiae [2]; [24]) was 0.7 mm and the “intensity (I) of coloration” value (Streptococcus agalactiae [2]; strain 7702055, 24 h) was 0.3. The “growth (G), size” value (Streptococcus agalactiae [2]; [25]) was 1 mm, the “intensity (I) of coloration” value (Streptococcus agalactiae [2]; strain 7702055, >40 h) was 2.3 and the “growth (G), size” value (Streptococcus agalactiae [2]; [26]) was 1.7 mm. For the same compound, the “growth (G), size” value (Streptococcus agalactiae [2]; [27]) was 0.5 mm, the “growth (G), size” value (Streptococcus agalactiae [2]; [28]) was 0.5 mm and the “intensity (I) of coloration” value (Streptococcus agalactiae [2]; strain 8709013, >40 h) was 0.8. For the same compound, the “growth (G), size” value (Streptococcus agalactiae [2]; [29]) was 0.7 mm, the “growth (G), size” value (Streptococcus agalactiae [2]; [30]) was 0.7 mm and the “intensity (I) of coloration” value (Streptococcus agalactiae [2]; strain 8904053, 24 h) was 0.3. For the same compound, the “growth (G), size” value (Streptococcus agalactiae [2]; [31]) was 0.7 mm, the “intensity (I) of coloration” value (Streptococcus agalactiae [2]; strain 8904053, >40 h) was 1.7 and the “growth (G), size” value (Streptococcus agalactiae [2]; [32]) was 0.8 mm.
For “5-bromo-4-chloro-3-indolyl-α-D-glucopyranoside [X-alpha-Glu]”, the “number of strains detected” value (Streptococcus agalactiae [1]; [3]) was 3/8, the “number of strains detected” value (Streptococcus agalactiae [1]; [4]) was 7/8 and the “number of strains detected” value (Streptococcus agalactiae [1]; [5]) was 7/8. For the same compound, the “number of strains detected” value (Streptococcus agalactiae [1]; [6]) was 7/8, the “number of strains detected” value (Streptococcus agalactiae [1]; [7]) was 7/8 and the “number of strains detected” value (Streptococcus agalactiae [1]; [8]) was 7/8. For the same compound, the “intensity (I) of coloration” value (Streptococcus agalactiae [2]; strain 0008200, 18 h) was 0.3, the “growth (G), size” value (Streptococcus agalactiae [2]; [9]) was 0.7 mm and the “intensity (I) of coloration” value (Streptococcus agalactiae [2]; strain 0008200, 24 h) was 0.6. The “growth (G), size” value (Streptococcus agalactiae [2]; [10]) was 0.7 mm, the “intensity (I) of coloration” value (Streptococcus agalactiae [2]; strain 0008200, >40 h) was 2.3 and the “growth (G), size” value (Streptococcus agalactiae [2]; [11]) was 0.8 mm. The “intensity (I) of coloration” value (Streptococcus agalactiae [2]; strain 0008206, 18 h) was 0.3, the “growth (G), size” value (Streptococcus agalactiae [2]; [12]) was 0.7 mm and the “intensity (I) of coloration” value (Streptococcus agalactiae [2]; strain 0008206, 24 h) was 1. For the same compound, the “growth (G), size” value (Streptococcus agalactiae [2]; [13]) was 0.7 mm, the “intensity (I) of coloration” value (Streptococcus agalactiae [2]; strain 0008206, >40 h) was 2 and the “growth (G), size” value (Streptococcus agalactiae [2]; [14]) was 0.8 mm. For the same compound, the “intensity (I) of coloration” value (Streptococcus agalactiae [2]; strain 0101060, 18 h) was 2.7, the “growth (G), size” value (Streptococcus agalactiae [2]; [15]) was 0.4 mm and the “intensity (I) of coloration” value (Streptococcus agalactiae [2]; strain 0101060, 24 h) was 3. The “growth (G), size” value (Streptococcus agalactiae [2]; [16]) was 0.5 mm, the “intensity (I) of coloration” value (Streptococcus agalactiae [2]; strain 0101060, >40 h) was 4 and the “growth (G), size” value (Streptococcus agalactiae [2]; [17]) was 0.7 mm. For the same compound, the “intensity (I) of coloration” value (Streptococcus agalactiae [2]; strain 7611003, 18 h) was 2.3, the “growth (G), size” value (Streptococcus agalactiae [2]; [18]) was 1 mm and the “intensity (I) of coloration” value (Streptococcus agalactiae [2]; strain 7611003, 24 h) was 2.7. The “growth (G), size” value (Streptococcus agalactiae [2]; [19]) was 1.2 mm, the “intensity (I) of coloration” value (Streptococcus agalactiae [2]; strain 7611003, >40 h) was 3 and the “growth (G), size” value (Streptococcus agalactiae [2]; [20]) was 1.5 mm. For the same compound, the “growth (G), size” value (Streptococcus agalactiae [2]; [21]) was 0.5 mm, the “growth (G), size” value (Streptococcus agalactiae [2]; [22]) was 0.7 mm and the “growth (G), size” value (Streptococcus agalactiae [2]; [23]) was 1.2 mm. For the same compound, the “intensity (I) of coloration” value (Streptococcus agalactiae [2]; strain 7702055, 18 h) was 0.5, the “growth (G), size” value (Streptococcus agalactiae [2]; [24]) was 0.7 mm and the “intensity (I) of coloration” value (Streptococcus agalactiae [2]; strain 7702055, 24 h) was 1. For the same compound, the “growth (G), size” value (Streptococcus agalactiae [2]; [25]) was 1 mm, the “intensity (I) of coloration” value (Streptococcus agalactiae [2]; strain 7702055, >40 h) was 3 and the “growth (G), size” value (Streptococcus agalactiae [2]; [26]) was 1.7 mm. For the same compound, the “intensity (I) of coloration” value (Streptococcus agalactiae [2]; strain 8709013, 18 h) was 0.1, the “growth (G), size” value (Streptococcus agalactiae [2]; [27]) was 0.4 mm and the “intensity (I) of coloration” value (Streptococcus agalactiae [2]; strain 8709013, 24 h) was 0.6. The “growth (G), size” value (Streptococcus agalactiae [2]; [28]) was 0.5 mm, the “intensity (I) of coloration” value (Streptococcus agalactiae [2]; strain 8709013, >40 h) was 2 and the “growth (G), size” value (Streptococcus agalactiae [2]; [29]) was 0.7 mm. For the same compound, the “intensity (I) of coloration” value (Streptococcus agalactiae [2]; strain 8904053, 18 h) was 0.3, the “growth (G), size” value (Streptococcus agalactiae [2]; [30]) was 0.7 mm and the “intensity (I) of coloration” value (Streptococcus agalactiae [2]; strain 8904053, 24 h) was 0.6. The “growth (G), size” value (Streptococcus agalactiae [2]; [31]) was 0.7 mm, the “intensity (I) of coloration” value (Streptococcus agalactiae [2]; strain 8904053, >40 h) was 2.3 and the “growth (G), size” value (Streptococcus agalactiae [2]; [32]) was 0.8 mm.
